Measurements reported in patent publication US20100068747A1, “Generic Assay for Monitoring Endocytosis” (Evotec Technologies GmbH, priority 2005, published 2010).
Entries after “also recorded” stand apart in the source; their conditions may differ.

Assays:
[1] = system: U2OS/ETAR-GFP cells; experiment: Internalization pathway analysis in U2OS/ETAR-GFP cells; format: cell-based, human
Description: With regard to the internalization pathway analysis in U2OS/ETAR-GFP cells, RDE was inhibited by including 5 mM β-methyl-cyclodextrin (CD) in the leveling medium. The following labeling and chase incubations were conducted in standard assay medium. For inhibition of clathrin mediated endocytosis cells were subjected to hypotonic shock by incubating 5 minutes at 37° C. in a 1:1 starvation medium-ddH2O mixture and then were transferred into a potassium (K^+) depleted assay medium for temperature leveling. The following labeling and chase incubations were also conducted in K^+ depleted assay medium, which was prepared by substituting sodium salts for all potassium salts in HBSS. Inhibition of both pathways was achieved by combining both methods and including 5 mM CD in the leveling medium for CLAME inhibition. For CLAME controls, 5 μg/ml Alexa Fluor 488 conjugated transferrin was included during the labeling period for all inhibited pathway scenarios. Protocol procedures were conducted as described, however, lectins were omitted in the labeling step. For lipid raft-dependent pathways there were no control markers available.

[2] = system: U2OS/ETAR-GFP cells; experiment: Lectin labeling of fixed cells, U2OS/ETAR-GFP; format: cell-based, human; settings: TRITC-lectin 10 nM and 20 nM
Description: (§1) Lectin labeling of fixed cells was conducted as follows: To detach confluent cells in order to prepare experiments for internalization studies, cells were always treated with EDTA solution instead of trypsin solution. For all seeding, washing, and labeling steps in 96-well plates a working volume of 100 μl per well was assessed. Cells were seeded out into a 96-well plate at different concentrations. U2OS/ETAR-GFP suspensions were adjusted to yield 2*10^4 cells/well, both of the CHO cell lines must be at 2.5*10^4 cells/well. Cells became confluent after 24 hours of incubation. In the following, they were washed with phosphate buffered saline (PBS) and fixed with 3% PFA for 20 minutes at RT. Then, cells were washed again with PBS and incubated in 10 nM and 20 nM solutions of each TRITC-lectin candidate in PBS, respectively. Again, cells were washed with PBS to remove excess lectin, and wells were refilled with PBS for analysis. For specificity controls, lectin solutions were incubated for 30 minutes prior to the application with an excess of the monosaccharide that represents the respective glyco-epitope.
(§2) The following microscopy and image analysis techniques were employed. When utilizing the epifluorescence microscope magnifications were adjusted according to the purpose of observation, e.g. single cell vs. cell collective. Concerning the filters U-MNU was used for Hoechst, U-MSWB for GFP, and U-N41007 for TRITC detection. Hoechst images were taken at 50 ms exposure time, GFP images at 100 to 200 ms and TRITC images needed 500 to 1000 ms. Overlay images were assembled with AnalySIS and tuned in color intensity to obtain the desired color contrast. Images taken to compare two experimental conditions, e.g. control vs. stimulus, featured identical exposure parameters. If possible, well areas were chosen that reflect similar states of confluence. Utilizing the Opera confocal fluorescence imager, the instrument was calibrated running standard methods for skew cropping (spatial camera alignments) and camera intensity normalization.

[3] = system: CHO/PAR-2 cells; experiment: Lectin labeling of fixed cells, CHO/PAR-2; format: cell-based; settings: TRITC-lectin 10 nM and 20 nM
Description: as §1, §2

[4] = system: U2OS/ETAR-GFP cells; experiment: Lectin labeling of live cells, U2OS/ETAR-GFP; format: cell-based, human; settings: TRITC-lectin, 10 nM at maximum
Description: (§3) Lectin labeling of live cells was conducted as follows: Cells were seeded as described above. After 24 hours cells were washed once with PBS and incubated in the incubator for another 2 hours in the respective standard medium without serum supplement to deprive them of serum factor mediated stimuli. This step was termed starvation period. Subsequently, cells were washed gently with PBS and incubated with 37° C. tempered assay medium comprised of Hank's Balanced Salt Solution (HBSS) pH 7.4, containing 20 mM HEPES and 30 mM D-glucose. The plate was left at RT for 30 minutes to slowly level its temperature and, thus, avoid capturing of temperature drop induced membrane dynamics. This period was termed leveling period. Then, assay medium was withdrawn and wells refilled with TRITC-lectin solutions at RT to start cell labeling. Several lectin concentrations in the low nano-molar range were tested. Molar concentrations were calculated from the data provided by Vector Labs. The plate was placed on a rotating shaker at low revolutions for 10 minutes while incubating. The start of the lectin incubation is referred to as assay starting point with t=0 min. After the 10 min incubation period the cells were gently washed with PBS and wells refilled with assay buffer at RT. Instantly thereafter, fluorescence signals were monitored predominately using the epifluorescence microscope.
as §2

[5] = system: CHO/ETAR cells; experiment: Lectin labeling of fixed cells, CHO/ETAR; format: cell-based; settings: TRITC-lectin 10 nM and 20 nM
Description: as §1, §2

[6] = system: CHO/ETAR cells; experiment: Lectin labeling of live cells, CHO/ETAR; format: cell-based; settings: TRITC-lectin, 10 nM at maximum
Description: as §3, §2

[7] = system: CHO/PAR-2 cells; experiment: Lectin labeling of live cells, CHO/PAR-2; format: cell-based; settings: TRITC-lectin, 10 nM at maximum
Description: as §3, §2

[8] = system: CHO/PAR-2 cell membrane protein; experiment: Lectin blotting of PAR-2 membrane sample; format: binding; settings: biotinylated lectin 5 μg/ml
Description: (§4) Membrane preparation was conducted as follows: Cells were cultured in five T175 flasks until confluency. Confluent cells were detached by applying 3 ml of EDTA solution onto the PBS washed cells. Following a 20-minute incubation at 37° C. and 5% CO2, cells were resuspended in 12 ml of starvation medium (standard medium without FCS), counted, and centrifuged in a Heraeus Megafuge 1.0R at 133 rcf for 4 minutes. All subsequent steps were carried out on ice and with ice cold solutions. After unification of all pellet fractions, hypotonic lysis buffer was added to the cells at a ratio of 1 ml per 5*10^7 cells. Additionally, protease inhibitor cocktail was added to 50 μl per 5*10^7 cells. Cells were homogenized with 30 strokes in a 5 ml potter on ice, centrifuged at 4° C. and 917 rcf for 10 minutes, and the supernatant was stored in an ultracentrifuge tube on ice. The pellet fraction was homogenized and centrifuged once again as described above. The supernatants of both procedures were unified and centrifuged at 4° C. and 100,000 rcf for 45 minutes in a Sorvall ultra-centrifuge. The supernatant of this centrifugation procedure was withdrawn and the pellet dissolved in 0.5 ml or 1.0 ml modified SDS PAGE loading buffer containing Tris-HCl, SDS, glycerol, but no β-mercapto-ethanol or dyes and stored in small aliquots of 50 μl at −20° C.
(§5) SDS-Page of membrane samples was conducted as follows: Discontinuous 12% polyacrylamide gels were prepared according to a standard protocol. Broad range marker and 25 μg membrane protein were mixed 1:1 with loading buffer and loaded five times onto a mini gel in alternating order. The gels were run at U=100 V for the first 20 minutes. Subsequently, voltage was increased to U=150 V. The run was aborted as soon as the pyronin G band reached the end of the gel. For coomassie staining, gels were put in coomassie staining solution on a shaker at low revolutions for 45 min. The staining solution was removed and the gel incubated with destaining solution for one to two hours, exchanging the solution several times until the desired contrast was obtained.
Blotting of membrane samples was conducted as follows: For blotting, 3 mm packs of Whatman papers were extensively soaked in one of the diverging blotting buffers, AB I, AB II, and CB, and a pile was assembled in a semi-dry Trans-Blot 3D system from Bio-Rad as depicted in the sketch of FIG. 2. Hybond nitrocellulose membrane was submerged in AB II prior to assembly. To smooth out any air bubbles from the pile, a Pasteur pipette was rolled several times over the top layer. The apparatus was closed and ran at U=25 V for 45 minutes. Then, the pile was disassembled, the membrane submerged in Ponceau S solution and gently swayed for 2 minutes. For destaining, ddH2O was substituted for the staining solution, and the membrane was briefly rinsed twice. After drying under ambient conditions, the marker bands were marked with a ballpoint-pen. The membrane was cut into slices each displaying one marker and one sample lane.
Probing of membrane samples was conducted as follows: For classical western blotting, membranes were blocked in PBS containing 5% low fat dried milk powder. They were placed on a rotating shaker at low revolutions for 1 hour. Subsequently, membranes were sealed in plastic bags with blocking solution additionally containing 1 μg/ml anti-PAR-2 antibody (1:400) or 0.5 μg/ml of anti-ETAR antibody (1:500), depending on the respective recombinant cell type used for the sample. […]

[9] = system: U2OS cells; experiment: Specificity control with competing monosaccharide on fixed cells; format: cell-based, human; settings: excess of inhibitory monosaccharide
Description: as §1

[10] = system: live cells; experiment: Signal transformation on live cells after labeling with fluorescent lectins (all cell lines); format: cell-based; settings: all experiments
Description: as §3, with “The plate was placed on a rotating shaker at low revolutions for 10 minutes while incubating. The start of the lectin incubation is referred to as assay starting point with t=0 min. After the 10 min incubation period the cells were gently washed with PBS and wells refilled with assay buffer at RT.” left out
The following microscopy and image analysis techniques were employed. […] Utilizing the Opera confocal fluorescence imager, the instrument was calibrated running standard methods for skew cropping (spatial camera alignments) and camera intensity normalization.

[11] = system: CHO/ETAR cell membrane protein; experiment: Lectin blotting of ETAR membrane sample; format: binding; settings: biotinylated lectin 5 μg/ml
Description: as §4
as §5, with “obtained. […]” for “obtained.”

[12] = system: U2OS/ETAR-GFP cells; experiment: Effect of lectin incubation on morphology of live cells; format: cell-based, human; settings: 5 nM, 10 nM, and 20 nM versus the control
Description: as §3

[13] = system: U2OS/ETAR-GFP cells; experiment: Serum supplements (insulin) in live cell labeling; format: cell-based, human; settings: 20 nM in assay medium in labeling and chase incubations
Description: For serum supplements in live cell labeling, starvation was carried out in Opti-MEM medium (11058; Gibco—Invitrogen, Karlsruhe, Germany). The following labeling and chase incubations were conducted in assay medium with a 20 nM insulin supplement.

| Substance | Staining of U2OS/ETAR-GFP [2] | Staining of CHO/PAR-2 [3] | Live cell staining of U2OS/ETAR-GFP [4] | Staining of CHO/ETAR [5] | Live cell staining of CHO/ETAR [6] | Live cell staining of CHO/PAR-2 [7] | fluorescent signal in the presence of the competing monosaccharide [9] | further results |
| --- | --- | --- | --- | --- | --- | --- | --- | --- |
| Alexa-Fluor® 488-transferrin: Human holo-transferrin-Alexa Fluor 488 conjugate, standard marker of the clathrin-mediated pathway | – | – | – | – | – | – | – | signals of clathrin-mediated pathway marker ([1]; 5 μg/ml, all conditions but inhibition of the clathrin-dependent pathway): detected in the perinuclear region |
| Griffonia (Bandeiraea) simplicifolia lectin [GSL-I] | very faint signal covering only some single cells; also recorded: weak single cell | reduced intensity with a high background; also recorded: weak cell surface | signal points were significantly smaller and less; also recorded: small, scattered | – | – | – | – | – |
| Lens culinaris agglutin [LCA] | extensive fluorescence was observed at the cell surface | reduced intensity with a high background; also recorded: weak cell surface | spot formation | cell surface | fluorescence accumulation in the form of tiny points around the cell boundaries; also recorded: cell boundary, points | spot formation | – | band at the same height as the western band (55 kDa, anti-PAR-2) [8]: one of them matching the height of the western band; bands detected above 35 kDa ([8]; exposure one to five minutes): four |
| Phaseolus vulgaris erythroagglutin [PHA-E] | extensive fluorescence was observed at the cell surface | signals clearly marking individual cells; also recorded: cell surface | spot formation | cell surface | cell surface, sequestered | strong signal contrast between the relatively unstained nucleus area and its fluorescing perimeter; also recorded: spot formation | reduced | stability of fluorescence signal over time [10]: fairly stable signals |
| Phaseolus vulgaris leucoagglutin [PHA-L] | extensive fluorescence was observed at the cell surface | signals clearly marking individual cells; also recorded: cell surface | spot formation | cell surface | cell surface, sequestered | strong signal contrast between the relatively unstained nucleus area and its fluorescing perimeter; also recorded: spot formation | reduced | stability of fluorescence signal over time [10]: fairly stable signals |
| Pisum sativum agglutin [PSA] | extensive fluorescence was observed at the cell surface | reduced intensity with a high background; also recorded: weak cell surface | spot formation | – | – | – | – | band at the same height as in the western (47 kDa, anti-ETAR) [11]: could clearly be detected |
| Sophora japonica agglutin [SJA] | only several little, spot-like signals on each cell; also recorded: weak spots on cell | – | medium sized, scattered spots | – | – | – | reduced | effect on U2OS/ETAR-GFP cells, phase contrast [12]: Irritating effect |
| porcine insulin | – | – | – | – | – | – | – | effect on spot formation of sWGA signal [13]: complete suppression of spot formation |
| β-methyl-cyclodextrin | – | – | – | – | – | – | – | spot formation of sWGA signal under inhibition of raft-dependent pathways ([1]; 5 mM in leveling medium, cholesterol extraction): did not impede the typical spot formation |
